Measurements: patent US7928182B2, “Glycerol polycarbonate, organic compositions containing same and method for obtaining said compositions” (Condat S.A., priority 2004, dated 2011)

Key:
Format in all cases: physicochemical
[1] = Combustion heat (ASTM D240); details: reference samples and control
Method: b) The combustion heat (kJ/g) was also measured according to standard ASTM D240. The combustion heat characterises the calorific energy released by a burning compound. The higher this value is, the better fuel a compound is and the more the “fire” is maintained by this factor, which is the temperature.

Density (densimeter) = details: 25° C., glycerol carbonate alone; in g/cm3 (unit assumed)
[2] = Surface tension (ring tensiometer); details: 25° C., glycerol carbonate alone; in mN/m (unit assumed)

| SMILES | Combustion heat [1] [kJ/g] | Density (Density (densimeter)) | Surface tension [2] |
| --- | --- | --- | --- |
| CCO [Ethanol] | 26.4 |  |  |
| CCCCCCC [Heptane] | 40.2 |  |  |
| CO [Methanol] | 19.6 |  |  |
| O=C1OCC(CO)O1 (centres unmarked) [glycerol carbonate] |  | 1.386 | 53.81 |
